# How the values were obtained:
# Assay type in all cases: in vivo, human
# [1] = system: patients with stable coronary artery disease; experiment: Adenosine stress perfusion CMR: myocardial blood flow and myocardial perfusion reserve
# Protocol: (30 μg/kg/day) or matching placebo, using a computerized randomization system involving concealed treatment arms. The co-primary endpoints were the change from baseline in global myocardial perfusion reserve (MPR) measured by quantitative perfusion cardiac magnetic resonance (CMR) imaging and the change from baseline in augmentation index (AIx) measured by applanation tonometry. The primary endpoints of MPR and AIx were assessed at baseline and 47 h post-commencement of the infusion (Figure 1).
# (§1) A standardized CMR protocol was acquired on 1.5 T (Siemens Avanto) or 3.0 T (Siemens Skyra and Verio) magnetic resonance imaging (MRI) scanners. The CMR protocol included standard localizers, long- and short-axis cine acquisitions, stress and rest first-pass perfusion, and late gadolinium enhancement (LGE) imaging as previously described.[24] For perfusion imaging, a saturation recovery prepared fast gradient echo sequence was used to acquire dynamic contrast-enhanced CMR during adenosine stress (140–280 µg/kg/min for 3 min) and rest, during first-pass of the IV administered contrast agent (Gadovist, 0.05 mmol/kg, 5 mL/s), followed by 20 mL saline injection (5 mL/s). Three short-axis planes through the left ventricle (basal, mid-ventricular, and apical) were obtained.
# (§2) CMR image collection, blinding, and handling were managed by an independent imaging contract-research organization (CRO; VirtualScopics, Inc., Rochester, NY, USA). The CMR quantitative analyses were performed by blinded academic readers with >3 years of CMR experience (D.C., A.R., and C.B.). Cine images for ventricular volumes and mass and myocardial perfusion images were manually contoured (QMass, Medis, Leiden, Netherlands). Myocardial blood flow (MBF) was derived from stress and rest perfusion images using a Fermi deconvolution method,[25] implemented in MATLAB.[26] Global MPR was calculated from the ratio of global MBF evaluated at stress and at rest (MPR = stress MBF/rest MBF). Global MBF was calculated by averaging the MBF (mL/g/min) for basal, mid, and apical short-axis left ventricular slices. Ascending and descending aortic strain and distensibility were derived from manually contoured end-diastolic and end-systolic aortic cine images. Aortic strain (AS, unit free fraction) = [maximum aortic lumen area − minimum aortic lumen area]/minimum aortic lumen area. Aortic distensibility (AD, mmHg^−^1) = aortic strain/pulse pressure. Ascending aortic peak flow velocity (m/s) was derived from manually contoured phase-velocity encoding sequence images (QFlow, Medis, Leiden, Netherlands). The presence or absence of myocardial scar was qualitatively assessed on the LGE images.
# [2] = system: patients with stable coronary artery disease; experiment: Aortic MRI measurements of arterial stiffness (strain, distensibility, peak flow velocity); settings: for Ascending aorta distensibility / Ascending aorta strain / Descending aorta distensibility / Descending aorta strain / Peak flow velocity: mean ± SD
# Protocol: Full left ventricular short-axis stack of cine images was acquired during the interval between stress and rest first-pass perfusion acquisitions. Following administration of the top-up contrast dose (Gadovist 0.05 mmol/kg), aortic cine and phase-velocity encoding sequences were acquired at the level of the pulmonary artery bifurcation. LGE imaging was performed with a segmented phase-sensitive inversion recovery sequence.
# as §2
# Model: Change from baseline was analysed using ANCOVA model including treatment as fixed effect and baseline as continuous covariate.
# [3] = system: patients with stable coronary artery disease; experiment: CMR left and right ventricular volumes and ejection fraction
# Source text: as §1, with “obtained. […]” for “obtained.”
# CMR image collection, blinding, and handling were managed by an independent imaging contract-research organization (CRO; VirtualScopics, Inc., Rochester, NY, USA). The CMR quantitative analyses were performed by blinded academic readers with >3 years of CMR experience (D.C., A.R., and C.B.). […] Global MPR was calculated from the ratio of global MBF evaluated at stress and at rest (MPR = stress MBF/rest MBF). Global MBF was calculated by averaging the MBF (mL/g/min) for basal, mid, and apical short-axis left ventricular slices. […] The presence or absence of myocardial scar was qualitatively assessed on the LGE images.
# [4] = 0 h (pre-dose baseline), mean ± SD, n=22
# [5] = 0 h (pre-dose baseline), mean ± SD, n=24
# [6] = 47 h post dose, mean ± SD, n=23
# [7] = 47 h post dose, mean ± SD, n=24
# [8] = Bayesian, criterion 1: increase between serelaxin and placebo greater than zero
# [9] = Bayesian, criterion 2: increase between serelaxin and placebo greater than 20%
# [10] = baseline to 47 h, 48 h IV infusion 30 µg/kg/day, ANCOVA, n=22
# [11] = baseline to day 3, Bayesian analysis
# [12] = baseline to day 3, Bayesian analysis, non-informative priors, n=22
# [13] = change baseline to 47 h, ANCOVA
# [14] = baseline to day 3, ANCOVA, n=23
substance,measurement,setting,value
Serelaxin,"Apical MBF rest, absolute value",[1]; [4],1.41 ± 0.43 (22) mL/g/min
same,"Apical perfusion reserve index, absolute value",[1]; [4],2.24 ± 0.89 (22)
same,"Basal MBF rest, absolute value",[1]; [4],1.16 ± 0.39 (22) mL/g/min
same,"Basal perfusion reserve index, absolute value",[1]; [4],2.25 ± 0.92 (22)
same,"Global MPR, absolute value",[1]; [4],2.25 ± 0.88 (22)
same,"Mean global MBF rest, absolute value",[1]; [4],1.26 ± 0.37 (22) mL/g/min
same,"Mid MBF rest, absolute value",[1]; [4],1.22 ± 0.37 (22) mL/g/min
same,"Mid perfusion reserve index, absolute value",[1]; [4],2.24 ± 0.98 (22)
same,"Apical MBF stress, absolute value",[1]; [5],2.82 ± 1.00 (24) mL/g/min
same,"Basal MBF stress, absolute value",[1]; [5],2.34 ± 0.90 (24) mL/g/min
same,"Mean global MBF stress, absolute value",[1]; [5],2.54 ± 0.87 (24) mL/g/min
same,"Mid MBF stress, absolute value",[1]; [5],2.45 ± 0.84 (24) mL/g/min
same,"Apical MBF stress, absolute value",[1]; [6],2.66 ± 0.73 (23) mL/g/min
same,"Apical perfusion reserve index, absolute value",[1]; [6],2.01 ± 0.60 (23)
same,"Basal MBF stress, absolute value",[1]; [6],2.14 ± 0.84 (23) mL/g/min
same,"Global MPR, absolute value",[1]; [6],1.98 ± 0.59 (23)
same,"Mean global MBF stress, absolute value",[1]; [6],2.32 ± 0.67 (23) mL/g/min
same,"Mid MBF stress, absolute value",[1]; [6],2.16 ± 0.70 (23) mL/g/min
same,"Mid perfusion reserve index, absolute value",[1]; [6],1.93 ± 0.70 (23)
same,"Apical MBF rest, absolute value",[1]; [7],1.41 ± 0.34 (24) mL/g/min
same,"Basal MBF rest, absolute value",[1]; [7],1.13 ± 0.39 (24) mL/g/min
same,"Mean global MBF rest, absolute value",[1]; [7],1.24 ± 0.32 (24) mL/g/min
same,"Mid MBF rest, absolute value",[1]; [7],1.17 ± 0.31 (24) mL/g/min
same,"Mean global MBF rest, probability of success Pr (Criterion 1|data)",[1]; [8],0.80
same,"Mean global MBF stress, probability of success Pr (Criterion 1|data)",[1]; [8],0.38
same,"Global MPR, probability of success Pr (Criterion 1|data)","[1]; Bayesian, criterion 1: increase in MPRI between serelaxin and placebo greater than zero",0.22
same,"Mean global MBF rest, probability of success Pr (Criterion 2|data)",[1]; [9],0.0014
same,"Mean global MBF stress, probability of success Pr (Criterion 2|data)",[1]; [9],0.0006
same,"Global MPR, probability of success Pr (Criterion 2|data)","[1]; Bayesian, criterion 2: increase in MPRI between serelaxin and placebo greater than 20%",0.0002
same,"Global MPR, change from baseline (adjusted mean)",[1]; [10],-0.24
same,"Mean global MBF rest, change from baseline (adjusted mean)",[1]; [10],0.01 mL/g/min
same,"Mid MBF rest, change from baseline (adjusted mean)","[1]; baseline to 47 h, ANCOVA, n=22",-0.01 mL/g/min
same,"Mid perfusion reserve index, change from baseline (adjusted mean)","[1]; baseline to 47 h, ANCOVA, n=22",-0.26
same,"Mid MBF stress, change from baseline (adjusted mean)","[1]; baseline to 47 h, ANCOVA, n=23",-0.27 mL/g/min
same,"Mean global MBF stress, change from baseline (adjusted mean)","[1]; baseline to 47 h, adenosine stress, 48 h IV infusion 30 µg/kg/day, ANCOVA, n=23",-0.22 mL/g/min
same,"Global MPR, estimate of difference (serelaxin vs placebo), posterior median",[1]; [11],-0.11
same,"Mean global MBF rest, estimate of difference (serelaxin vs placebo), posterior median",[1]; [11],0.05 mL/g/min
same,"Mean global MBF stress, estimate of difference (serelaxin vs placebo), posterior median",[1]; [11],-0.05 mL/g/min
same,"Global MPR, change from baseline, within treatment posterior median",[1]; [12],-0.25
same,"Mean global MBF rest, change from baseline, within treatment posterior median",[1]; [12],0.01 mL/g/min
same,"Mean global MBF stress, change from baseline, within treatment posterior median","[1]; baseline to day 3, Bayesian analysis, non-informative priors, n=23",-0.22 mL/g/min
same,"Mean global MBF rest, adjusted mean difference serelaxin versus placebo","[1]; change baseline to 47 h, 48 h IV infusion 30 µg/kg/day, ANCOVA",0.05 mL/g/min
same,"Global MPR, adjusted mean difference serelaxin versus placebo",[1]; [13],-0.11
same,"Mid MBF rest, adjusted mean difference serelaxin versus placebo",[1]; [13],0.06 mL/g/min
same,"Mid MBF stress, adjusted mean difference serelaxin versus placebo",[1]; [13],-0.11 mL/g/min
same,"Mid perfusion reserve index, adjusted mean difference serelaxin versus placebo",[1]; [13],-0.19
same,"Mean global MBF stress, adjusted mean difference serelaxin versus placebo","[1]; change baseline to 47 h, adenosine stress, ANCOVA",-0.05 mL/g/min
same,Ascending aorta distensibility,"[2]; 0 h (pre-dose baseline), n=24",0.002 ± 0.002 (24) mm/Hg
same,Ascending aorta strain,"[2]; 0 h (pre-dose baseline), n=24",0.12 ± 0.06 (24)
same,Descending aorta distensibility,"[2]; 0 h (pre-dose baseline), n=24",0.002 ± 0.001 (24) mm/Hg
same,Descending aorta strain,"[2]; 0 h (pre-dose baseline), n=24",0.16 ± 0.06 (24)
same,Peak flow velocity,"[2]; 0 h (pre-dose baseline), n=24",128.00 ± 66.69 (24) cm/sec
same,Ascending aorta distensibility,"[2]; 47 h post-dose, n=23",0.002 ± 0.001 (23) mm/Hg
same,Ascending aorta strain,"[2]; 47 h post-dose, n=23",0.12 ± 0.06 (23)
same,Descending aorta distensibility,"[2]; 47 h post-dose, n=23",0.002 ± 0.001 (23) mm/Hg
same,Descending aorta strain,"[2]; 47 h post-dose, n=23",0.17 ± 0.05 (23)
same,Peak flow velocity,"[2]; 47 h post-dose, n=23",127.98 ± 60.76 (23) cm/sec
same,"CMR-derived parameters of aortic stiffness, change from baseline to 47 h compared with placebo","[2]; ascending/descending aorta strain and distensibility, ascending aortic peak flow velocity, P > 0.05 for all",no significant change
same,"Ascending aorta distensibility, adjusted mean difference serelaxin versus placebo","[2]; baseline to day 3, ANCOVA",-0.0001 mm/Hg
same,"Ascending aorta strain, adjusted mean difference serelaxin versus placebo","[2]; baseline to day 3, ANCOVA",0.01
same,"Descending aorta distensibility, adjusted mean difference serelaxin versus placebo","[2]; baseline to day 3, ANCOVA",-0.0001 mm/Hg
same,"Descending aorta strain, adjusted mean difference serelaxin versus placebo","[2]; baseline to day 3, ANCOVA",0.01
same,"Peak flow velocity, adjusted mean difference serelaxin versus placebo","[2]; baseline to day 3, ANCOVA",13.71 cm/sec
same,"Ascending aorta distensibility, change from baseline (adjusted mean)",[2]; [14],-0.0001 mm/Hg
same,"Ascending aorta strain, change from baseline (adjusted mean)",[2]; [14],0.01
same,"Descending aorta distensibility, change from baseline (adjusted mean)",[2]; [14],0.0001 mm/Hg
same,"Descending aorta strain, change from baseline (adjusted mean)",[2]; [14],0.011
same,"Peak flow velocity, change from baseline (adjusted mean)",[2]; [14],10.12 cm/sec
same,"Left and right ventricular volumes and ejection fractions, change from baseline compared with placebo","[3]; baseline to 47 h, CMR",no statistically significant changes
same,"Left ventricular ejection fraction, mean value","[3]; remained in the normal range, no significant changes with serelaxin treatment",63%

# Source: paper PMC7797213, “Vascular effects of serelaxin in patients with stable coronary artery disease: a randomized placebo-controlled trial” (Cardiovascular Research, 2020)
